molecular target: T1, human recombinant OX2 (hOX2) receptor (Homo sapiens, UniProt O43614); experiment: IP-1 accumulation assay (IP-One HTRF) in hOX2-CHO cells; type: cell-based; settings: 60 min at 37° C., mean of at least two independent experiments, read-out: EC50_OX2R Category
T1 construct: host or cells: CHO cells
T1 sequence (O43614 1-444): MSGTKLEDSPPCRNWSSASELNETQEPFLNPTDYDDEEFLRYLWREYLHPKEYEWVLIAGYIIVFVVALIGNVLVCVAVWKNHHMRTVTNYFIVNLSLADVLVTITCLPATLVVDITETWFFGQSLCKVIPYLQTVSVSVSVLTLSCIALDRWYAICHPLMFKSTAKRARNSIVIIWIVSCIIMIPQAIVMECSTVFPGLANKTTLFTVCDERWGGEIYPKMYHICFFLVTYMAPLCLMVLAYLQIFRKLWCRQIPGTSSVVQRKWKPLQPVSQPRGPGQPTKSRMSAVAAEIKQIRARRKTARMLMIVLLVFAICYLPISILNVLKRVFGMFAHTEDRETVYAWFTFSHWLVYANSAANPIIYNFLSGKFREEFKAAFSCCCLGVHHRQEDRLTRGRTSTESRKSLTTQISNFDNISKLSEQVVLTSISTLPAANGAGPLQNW
Procedure: Example 94: IP-1 Accumulation Assay
The accumulation of Inositol-1 Monophosphate (IP-1) was measured using IP-One HTRF® Terbium cryptate based assay (Cisbio) in human recombinant OX1 (hOX1) and at OX2 (hOX2) receptors expressed in CHO cells (DiscoverX) according to the manufacturer's instructions for cells tested in suspension.
hOX1-CHO and hOX2-CHO cells were seeded into white 384-well plates at a density of 20,000 cells/well in Hank's Balanced Salt Solution (HBSS) containing 20 mM HEPES pH 7.4, 50 mM, LiCl and 0.1% and Bovine Serum Albumin (BSA).
Compounds of the present disclosure were tested in a 11 points concentration response curve (CRC) serially diluted in neat DMSO at 200 fold concentrations and added by Echo acoustic liquid handling (Labcyte) to the cells (0.5% DMSO final in the assay). After 60 min of incubation at 37° C. detection reagents, IP1-d2 tracer and anti-IP1-cryptate were diluted in lysis buffer according to the manufacturer's descriptions and added to the cells.
Following 60 mi incubation at room temperature, time-resolved fluorescence (HTRF) was measured at 615 nm and 665 nm by Envision Multilabel reader (Perkin Elmer) and the HTRF ratio (A665/A615×10^4) was calculated.
The IP-1 accumulation response was expressed as percentage of the maximal OX-A response.
Curve fitting and EC50 estimations were carried out using a four-parameter logistic model using XLfit Software. Mean data of EC50 are calculated from at least two independent experiments performed in duplicates.

Structure (SMILES)	EC50 [µM]
O=C1N[C@]2(CCO1)[C@H](Cc1cccc(-c3cc(F)cc(F)c3)c1F)N(C(=O)[C@H]1C[C@@H](F)C1)CC2(F)F (relative stereo) [Example 79, rel-(1S,5R)-4,4-difluoro-2-[(CIS)-3-fluorocyclobutanecarbonyl]-1-({2,3′,5′-trifluoro-[1,1′-biphenyl]-3-yl}methyl)-8-oxa-2,6-diazaspiro[4.5]decan-7-one]	0.1 to 1
CCNC(=O)N1CCC[C@]2(COCC(=O)N2)[C@H]1CO[C@H]1CC[C@@H](c2ccccc2)CC1 (single isomer, unassigned) [Example 2]	1 to 10
CCNC(=O)N1CCC[C@@]2(COCC(=O)N2)[C@@H]1CO[C@H]1CC[C@@H](c2ccccc2)CC1 (single isomer, unassigned) [Example 3]	< 0.1
COC(=O)N1CCC[C@]2(COCC(=O)N2)[C@H]1CO[C@H]1CC[C@@H](c2ccccc2)CC1 (single isomer, unassigned) [Example 5]	> 10
COC(=O)N1CCC[C@@]2(COCC(=O)N2)[C@@H]1CO[C@H]1CC[C@@H](c2ccccc2)CC1 (single isomer, unassigned) [Example 6]	0.1 to 1
O=C1COC[C@]2(CCCN(C(=O)C3CC3)[C@@H]2CO[C@H]2CC[C@@H](c3ccccc3)CC2)N1 (single isomer, unassigned) [Example 8]	> 10
O=C1COC[C@@]2(CCCN(C(=O)C3CC3)[C@H]2CO[C@H]2CC[C@@H](c3ccccc3)CC2)N1 (single isomer, unassigned) [Example 9]	0.1 to 1
CCNC(=O)N1CCC[C@]2(CCOC(=O)N2)[C@H]1CO[C@H]1CC[C@@H](c2ccccc2)CC1 (single isomer, unassigned) [Example 13]	> 10
CCNC(=O)N1CCC[C@@]2(CCOC(=O)N2)[C@@H]1CO[C@H]1CC[C@@H](c2ccccc2)CC1 (single isomer, unassigned) [Example 14]	< 0.1
CCNC(=O)N1CC[C@@]2(COCC(=O)N2)[C@@H]1CO[C@H]1CC[C@@H](c2ccccc2)CC1 (single isomer, unassigned) [Example 16]	0.1 to 1
CCNC(=O)N1CC[C@]2(COCC(=O)N2)[C@H]1CO[C@H]1CC[C@@H](c2ccccc2)CC1 (single isomer, unassigned) [Example 17]	> 10
COC(=O)N1CCC[C@]2(CCOC(=O)N2)[C@H]1Cc1cccc(-c2ccccc2)c1 (single isomer, unassigned) [Example 20]	> 10
COC(=O)N1CCC[C@@]2(CCOC(=O)N2)[C@@H]1Cc1cccc(-c2ccccc2)c1 (single isomer, unassigned) [Example 21]	> 10
COC(=O)N1CCC[C@]2(CCOC(=O)N2)[C@@H]1Cc1cccc(-c2ccccc2)c1 (single isomer, unassigned) [Example 22]	> 10
COC(=O)N1CCC[C@@]2(CCOC(=O)N2)[C@H]1Cc1cccc(-c2ccccc2)c1 (single isomer, unassigned) [Example 23]	> 10
CCNC(=O)N1CCC[C@@]2(CNS(=O)(=O)N2)[C@@H]1Cc1cccc(-c2ccccc2)c1 (single isomer, unassigned) [Example 31]	> 10
CCNC(=O)N1CCC[C@]2(CNS(=O)(=O)N2)[C@H]1Cc1cccc(-c2ccccc2)c1 (single isomer, unassigned) [Example 32]	> 10
CCNC(=O)N1CCC[C@]2(CCCC(=O)N2)[C@H]1CO[C@H]1CC[C@@H](c2ccccc2)CC1 (single isomer, unassigned) [Example 34]	> 10
CCNC(=O)N1CCC[C@@]2(CCCC(=O)N2)[C@@H]1CO[C@H]1CC[C@@H](c2ccccc2)CC1 (single isomer, unassigned) [Example 35]	< 0.1
CCNC(=O)N1CCC[C@]2(COC(C)C(=O)N2)[C@H]1CO[C@H]1CC[C@@H](c2ccccc2)CC1 (single isomer, unassigned) [Example 39]	> 10

Structure (SMILES)	EC50 [µM]
CCNC(=O)N1CCC[C@@]2(COC(C)C(=O)N2)[C@@H]1CO[C@H]1CC[C@@H](c2ccccc2)CC1 (single isomer, unassigned) [Example 40]	< 0.1
CCNC(=O)N1CCC[C@]2(COC(F)C(=O)N2)[C@H]1CO[C@H]1CC[C@@H](c2ccccc2)CC1 (single isomer, unassigned) [Example 42]	1 to 10
CCNC(=O)N1CCC[C@@]2(COC(F)C(=O)N2)[C@@H]1CO[C@H]1CC[C@@H](c2ccccc2)CC1 (single isomer, unassigned) [Example 43]	< 0.1
CCNC(=O)N1CCC(F)(F)[C@@]2(CCOC(=O)N2)[C@@H]1CO[C@H]1CC[C@@H](c2ccccc2)CC1 (single isomer, unassigned) [Example 45]	< 0.1
CCNC(=O)N1CCC(F)(F)[C@]2(CCOC(=O)N2)[C@H]1CO[C@H]1CC[C@@H](c2ccccc2)CC1 (single isomer, unassigned) [Example 46]	> 10
O=C1N[C@]2(CCCN(C(=O)[C@H]3C[C@@H](F)C3)[C@H]2CO[C@H]2CC[C@@H](c3ccccc3)CC2)CCO1 (single isomer, unassigned) [Example 66]	< 0.1
O=C1N[C@@]2(CCCN(C(=O)[C@H]3C[C@@H](F)C3)[C@@H]2CO[C@H]2CC[C@@H](c3ccccc3)CC2)CCO1 (single isomer, unassigned) [Example 67]	> 10
O=C1COC[C@@]2(CCN(C(=O)[C@H]3C[C@@H](F)C3)[C@H]2Cc2cccc(-c3cc(F)cc(F)c3)c2F)N1 (single isomer, unassigned) [Example 72]	0.1 to 1
O=C1COC[C@]2(CCN(C(=O)[C@H]3C[C@@H](F)C3)[C@@H]2Cc2cccc(-c3cc(F)cc(F)c3)c2F)N1 (single isomer, unassigned) [Example 73]	> 10
O=C1N[C@]2(CCN(C(=O)OCC(F)F)[C@H]2Cc2cccc(-c3cc(F)cc(F)c3)c2F)COC1F (single isomer, unassigned) [Example 74]	1 to 10
O=C1N[C@@]2(CCN(C(=O)OCC(F)F)[C@@H]2Cc2cccc(-c3cc(F)cc(F)c3)c2F)COC1F (single isomer, unassigned) [Example 75]	> 10
C[C@@H]1C[C@@]2(COCC(=O)N2)[C@H](Cc2cccc(-c3cc(F)cc(F)c3)c2F)N1C(=O)C1CC1F (single isomer, unassigned) [Example 90]	0.1 to 1
C[C@@H]1C[C@@]2(COCC(=O)N2)[C@H](Cc2cccc(-c3cc(F)cc(F)c3)c2F)N1C(=O)C1CC1F (single isomer, unassigned) [Example 91]	0.1 to 1
C[C@@H]1C[C@@]2(COCC(=O)N2)[C@H](Cc2cccc(-c3cc(F)cc(F)c3)c2F)N1C(=O)C1CC1F (single isomer, unassigned) [Example 92]	0.1 to 1
CCNC(=O)N1CCCC2(CCOC(=O)N2)C1CO[C@H]1CC[C@@H](c2ccccc2)CC1 (stereo partly drawn) [Example 11, (CIS)-N-ethyl-2-oxo-7-({[(CIS)-4-phenylcyclohexyl]oxy}methyl)-3-oxa-1,8-diazaspiro[5.5]undecane-8-carboxamide]	< 0.1
CCNC(=O)N1CCCC2(CCOC(=O)N2)C1CO[C@H]1CC[C@@H](c2ccccc2)CC1 (stereo partly drawn) [Example 12, (Trans)-N-ethyl-2-oxo-7-({[(CIS)-4-phenylcyclohexyl]oxy}methyl)-3-oxa-1,8-diazaspiro[5.5]undecane-8-carboxamide]	1 to 10
COC(=O)N1CCCC2(CCOC(=O)N2)C1Cc1cccc(-c2ccccc2)c1 (stereo not shown) [Example 19, Methyl 7-({[1,1′-biphenyl]-3-yl}methyl)-2-oxo-3-oxa-1,8-diazaspiro[5.5]undecane-8-carboxylate]	> 10
CCNC(=O)N1CCC[C@]2(CCOC(=O)N2)[C@H]1Cc1cccc(-c2ccccc2)c1 [Example 26, (6S,7R)-7-({[1,1′-biphenyl]-3-yl}methyl)-N-ethyl-2-oxo-3-oxa-1,8-diazaspiro[5.5]undecane-8-carboxamide]	> 10
CCNC(=O)N1CCC[C@@]2(CCOC(=O)N2)[C@@H]1Cc1cccc(-c2ccccc2)c1 [Example 27, (6R,7S)-7-({[1,1′-biphenyl]-3-yl}methyl)-N-ethyl-2-oxo-3-oxa-1,8-diazaspiro[5.5]undecane-8-carboxamide]	0.1 to 1
COC(=O)N1CCC[C@@]2(COC(=O)N2)[C@@H]1Cc1cccc(-c2ccccc2)c1 [Example 29, Methyl (5S,6S)-6-({[1,1′-biphenyl]-3-yl}methyl)-2-oxo-3-oxa-1,7-diazaspiro[4.5]decane-7-carboxylate]	> 10
